# Results: PubChem BioAssay (NCI)
#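 In this assay, cells in 96-well plates receive the compound at five concentrations for 48 hours. Endpoints are linearly interpolated between the surrounding concentrations. GI50: concentration for 50% inhibition of growth. Definition used: TGI = concentration required for complete inhibition of growth.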
# Assays:
# Experiment in all cases: inhibition of tumour cell growth, NCI panel, 48 h
# [1] = test system: MALME-3M melanoma
# [2] = test system: OVCAR-4 ovarian
# [3] = test system: NCI-H460 lung
# [4] = test system: SF-295 CNS
# [5] = test system: 786-0 renal
# [6] = test system: PC-3 prostate
# [7] = test system: NCI-H522 lung
# [8] = test system: SW-620 colon
# [9] = test system: HOP-92 NSCLC
# [10] = test system: UACC-257 melanoma
# [11] = test system: SR leukemia
# [12] = test system: HT29 colon
# [13] = test system: SK-MEL-5 melanoma
# [14] = test system: IGROV1 ovarian
# [15] = test system: OVCAR-8 ovarian
# [16] = test system: MDA-MB-231 breast
# [17] = test system: RXF 393 renal
# [18] = test system: LOX IMVI melanoma
# [19] = test system: RPMI-8226 leukemia
# [20] = test system: NCI/ADR-RES ovarian
# [21] = test system: T-47D breast
# [22] = test system: K-562 leukemia
# [23] = test system: UO-31 renal
# [24] = test system: SF-268 CNS
# [25] = test system: SK-MEL-28 melanoma
# [26] = test system: NCI-H23 lung
# [27] = test system: SN12C renal
# [28] = test system: HL-60(TB) leukemia
# [29] = test system: UACC-62 melanoma
# [30] = test system: HOP-62 NSCLC
# [31] = test system: MDA-MB-435
# [32] = test system: CAKI-1 renal
# [33] = test system: MOLT-4 leukemia
# [34] = test system: SNB-75 CNS
# [35] = test system: M14 melanoma
# [36] = test system: SK-MEL-2 melanoma
# [37] = test system: EKVX NSCLC
# [38] = test system: SK-OV-3 ovarian
# [39] = test system: TK-10 renal
# [40] = test system: KM12 colon
# [41] = test system: HCT-116 colon
# [42] = test system: A549 NSCLC
# [43] = test system: COLO 205 colon
# [44] = test system: BT-549 breast
# [45] = test system: U251 CNS
# [46] = test system: SNB-19 CNS
# [47] = test system: DU-145 prostate
# [48] = test system: NCI-H226 lung
# [49] = test system: A498 renal
# [50] = test system: OVCAR-5 ovarian
# [51] = test system: SF-539 CNS
# [52] = test system: ACHN renal
# [53] = test system: CCRF-CEM leukemia
# [54] = test system: HCC-2998 colon
# [55] = test system: MCF7 breast
# [56] = test system: HS 578T breast
# [57] = test system: OVCAR-3 ovarian
smiles,measurement,setting,value
COc1cc2c3c(n(CCCN(CCCN(CCCn4c5c(c6ccccc6c4=O)C(=O)c4ccccc4-5)C(=O)OC(C)(C)C)C(=O)OC(C)(C)C)c(=O)c2cc1OC)-c1cc2c(cc1C3=O)OCO2,GI50,[1],> 100 µM
same,TGI,[1],> 100 µM
same,GI50,[2],> 100 µM
same,TGI,[2],> 100 µM
same,GI50,[3],21.5 µM
same,TGI,[3],> 100 µM
same,GI50,[4],> 100 µM
same,TGI,[4],> 100 µM
same,GI50,[5],> 100 µM
same,TGI,[5],> 100 µM
same,GI50,[6],> 100 µM
same,TGI,[6],> 100 µM
same,GI50,[7],> 100 µM
same,TGI,[7],> 100 µM
same,GI50,[8],> 100 µM
same,TGI,[8],> 100 µM
same,GI50,[9],> 100 µM
same,TGI,[9],> 100 µM
same,GI50,[10],> 100 µM
same,TGI,[10],> 100 µM
same,GI50,[11],33.6 µM
same,TGI,[11],> 100 µM
same,GI50,[12],> 100 µM
same,TGI,[12],> 100 µM
same,GI50,[13],> 100 µM
same,TGI,[13],> 100 µM
same,GI50,[14],> 100 µM
same,TGI,[14],> 100 µM
same,GI50,[15],> 100 µM
same,TGI,[15],> 100 µM
same,GI50,[16],28.5 µM
same,TGI,[16],> 100 µM
same,GI50,[17],> 100 µM
same,TGI,[17],> 100 µM
same,GI50,[18],26.5 µM
same,TGI,[18],> 100 µM
same,GI50,[19],> 100 µM
same,TGI,[19],> 100 µM
same,GI50,[20],> 100 µM
same,TGI,[20],> 100 µM
same,GI50,[21],> 100 µM
same,TGI,[21],> 100 µM
same,GI50,[22],> 100 µM
same,TGI,[22],> 100 µM
same,GI50,[23],> 100 µM
same,TGI,[23],> 100 µM
same,GI50,[24],> 100 µM
same,TGI,[24],> 100 µM
same,GI50,[25],> 100 µM
same,TGI,[25],> 100 µM
same,GI50,[26],> 100 µM
same,TGI,[26],> 100 µM
same,GI50,[27],> 100 µM
same,TGI,[27],> 100 µM
same,GI50,[28],> 100 µM
same,TGI,[28],> 100 µM
same,GI50,[29],> 100 µM
same,TGI,[29],> 100 µM
same,GI50,[30],> 100 µM
same,TGI,[30],> 100 µM
same,GI50,[31],> 100 µM
same,TGI,[31],> 100 µM
same,GI50,[32],9.85 µM
same,TGI,[32],> 100 µM
same,GI50,[33],> 100 µM
same,TGI,[33],> 100 µM
same,GI50,[34],> 100 µM
same,TGI,[34],> 100 µM
same,GI50,[35],> 100 µM
same,TGI,[35],> 100 µM
same,GI50,[36],> 100 µM
same,TGI,[36],> 100 µM
same,GI50,[37],11.8 µM
same,TGI,[37],34 µM
same,GI50,[38],> 100 µM
same,TGI,[38],> 100 µM
same,GI50,[39],50.1 µM
same,TGI,[39],> 100 µM
same,GI50,[40],> 100 µM
same,TGI,[40],> 100 µM
same,GI50,[41],> 100 µM
same,TGI,[41],> 100 µM
same,GI50,[42],> 100 µM
same,TGI,[42],> 100 µM
same,GI50,[43],> 100 µM
same,TGI,[43],> 100 µM
same,GI50,[44],34.7 µM
same,TGI,[44],> 100 µM
same,GI50,[45],> 100 µM
same,TGI,[45],> 100 µM
same,GI50,[46],> 100 µM
same,TGI,[46],> 100 µM
COc1cc(C2c3cc4c(cc3OC(NNC(N)=O)C2C)OCO4)cc(OC)c1OC (stereo unspecified),TGI,[1],> 100 µM
same,TGI,[2],> 100 µM
same,TGI,[3],> 89.8 µM
same,TGI,[4],0.425 µM
same,TGI,[5],> 100 µM
same,TGI,[6],> 100 µM
same,TGI,[7],0.344 µM
same,TGI,[47],> 100 µM
same,TGI,[48],3.7 µM
same,TGI,[8],> 100 µM
same,TGI,[49],0.0599 µM
same,TGI,[50],> 100 µM
same,TGI,[51],0.165 µM
same,TGI,[9],8.18 µM
same,TGI,[10],> 100 µM
same,TGI,[52],> 62.2 µM
same,TGI,[12],> 100 µM
same,TGI,[13],22.8 µM
same,TGI,[53],0.507 µM
same,TGI,[14],> 100 µM
same,TGI,[15],> 100 µM
same,TGI,[54],> 27.2 µM
same,TGI,[16],7.25 µM
same,TGI,[17],> 100 µM
same,TGI,[18],> 100 µM
same,TGI,[19],> 58.1 µM
same,TGI,[20],> 100 µM
same,TGI,[21],> 100 µM
same,TGI,[22],2.82 µM
same,TGI,[23],> 72.6 µM
same,TGI,[24],> 100 µM
same,TGI,[25],> 100 µM
same,TGI,[26],> 100 µM
same,TGI,[27],> 100 µM
same,TGI,[29],> 100 µM
same,TGI,[32],> 100 µM
same,TGI,[33],> 100 µM
same,TGI,[34],> 87.9 µM
same,TGI,[35],> 44.9 µM
same,TGI,[36],> 100 µM
same,TGI,[37],99.7 µM
same,TGI,[38],> 100 µM
same,TGI,[39],> 100 µM
same,TGI,[40],> 100 µM
same,TGI,[41],> 36.5 µM
same,TGI,[55],> 53.8 µM
same,TGI,[42],> 100 µM
same,TGI,[43],0.613 µM
same,TGI,[44],> 100 µM
same,TGI,[46],> 100 µM
same,TGI,[56],> 64.9 µM
O=c1cc(-c2ccccc2)[nH]c2ncccc12,TGI,[1],> 100 µM
same,TGI,[2],> 100 µM
same,TGI,[3],> 52.1 µM
same,TGI,[4],0.269 µM
same,TGI,[5],> 100 µM
same,TGI,[6],> 27.9 µM
same,TGI,[7],0.702 µM
same,TGI,[47],> 100 µM
same,TGI,[8],> 100 µM
same,TGI,[49],> 100 µM
same,TGI,[50],> 100 µM
same,TGI,[9],7.54 µM
same,TGI,[10],> 100 µM
same,TGI,[52],> 100 µM
same,TGI,[12],0.426 µM
same,TGI,[13],> 60.6 µM
same,TGI,[53],> 100 µM
same,TGI,[14],> 100 µM
same,TGI,[15],4.01 µM
same,TGI,[54],> 42 µM
same,TGI,[16],> 26.7 µM
same,TGI,[18],> 100 µM
same,TGI,[19],> 100 µM
same,TGI,[20],0.414 µM
same,TGI,[21],> 100 µM
same,TGI,[22],> 100 µM
same,TGI,[23],> 100 µM
same,TGI,[24],> 100 µM
same,TGI,[25],> 100 µM
same,TGI,[30],> 100 µM
same,TGI,[32],> 100 µM
same,TGI,[33],> 100 µM
same,TGI,[35],> 100 µM
same,TGI,[37],> 100 µM
same,TGI,[38],1.89 µM
same,TGI,[39],> 100 µM
same,TGI,[40],15.7 µM
same,TGI,[57],> 100 µM
same,TGI,[41],> 54 µM
same,TGI,[55],> 100 µM
same,TGI,[42],> 100 µM
same,TGI,[44],> 100 µM
same,TGI,[46],> 100 µM
